Source: ChEMBL document CHEMBL2074250, “Digoxin up-regulates MDR1 in human colon carcinoma Caco-2 cells” (Biochem Biophys Res Commun, 2002)

Biological target: ATP-dependent translocase ABCB1 (Homo sapiens, UniProt P08183)
Test: TP_TRANSPORTER: RT-PCR in Caco-2 cells
Type: functional, cell-based

Chain of ATP-dependent translocase ABCB1 (P08183 whole entry): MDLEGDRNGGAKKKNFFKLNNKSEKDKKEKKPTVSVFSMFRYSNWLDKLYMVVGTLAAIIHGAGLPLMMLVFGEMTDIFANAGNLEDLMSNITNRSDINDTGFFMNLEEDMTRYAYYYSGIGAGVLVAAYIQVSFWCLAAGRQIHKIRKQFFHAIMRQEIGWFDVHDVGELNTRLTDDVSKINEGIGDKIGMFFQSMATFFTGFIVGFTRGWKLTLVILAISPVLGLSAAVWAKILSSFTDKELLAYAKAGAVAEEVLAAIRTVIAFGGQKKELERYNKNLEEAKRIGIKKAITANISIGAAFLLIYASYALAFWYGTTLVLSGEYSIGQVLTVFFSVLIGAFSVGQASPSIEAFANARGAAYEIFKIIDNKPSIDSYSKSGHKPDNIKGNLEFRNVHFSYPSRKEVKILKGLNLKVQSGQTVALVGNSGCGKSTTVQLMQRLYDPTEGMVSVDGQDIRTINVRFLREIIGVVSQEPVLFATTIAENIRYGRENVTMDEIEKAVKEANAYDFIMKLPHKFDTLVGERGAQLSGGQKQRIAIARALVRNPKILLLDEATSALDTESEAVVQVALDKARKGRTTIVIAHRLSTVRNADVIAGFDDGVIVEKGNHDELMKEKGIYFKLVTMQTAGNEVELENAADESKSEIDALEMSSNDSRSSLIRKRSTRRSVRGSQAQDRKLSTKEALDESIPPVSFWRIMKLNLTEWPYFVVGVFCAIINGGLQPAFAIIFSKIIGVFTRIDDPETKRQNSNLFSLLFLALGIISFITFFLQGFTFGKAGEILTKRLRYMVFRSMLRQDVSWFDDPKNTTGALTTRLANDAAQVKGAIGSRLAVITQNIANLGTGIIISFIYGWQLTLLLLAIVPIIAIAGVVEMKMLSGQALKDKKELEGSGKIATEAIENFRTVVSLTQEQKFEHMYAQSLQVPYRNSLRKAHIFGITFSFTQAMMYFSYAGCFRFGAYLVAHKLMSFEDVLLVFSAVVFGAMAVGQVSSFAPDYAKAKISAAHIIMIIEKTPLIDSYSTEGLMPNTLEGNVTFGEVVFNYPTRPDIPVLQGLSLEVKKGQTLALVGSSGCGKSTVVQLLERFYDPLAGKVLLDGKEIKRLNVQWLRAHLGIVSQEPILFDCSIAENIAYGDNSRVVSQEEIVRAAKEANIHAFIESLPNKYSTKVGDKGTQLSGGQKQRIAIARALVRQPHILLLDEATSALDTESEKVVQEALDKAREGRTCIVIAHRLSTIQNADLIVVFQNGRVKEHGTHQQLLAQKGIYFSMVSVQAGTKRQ

`C[C@H]1O[C@@H](O[C@H]2[C@@H](O)C[C@H](O[C@H]3[C@@H](O)C[C@H](O[C@H]4CC[C@@]5(C)[C@H](CC[C@@H]6[C@@H]5C[C@@H](O)[C@]5(C)[C@@H](C7=CC(=O)OC7)CC[C@]65O)C4)O[C@@H]3C)O[C@@H]2C)C[C@H](O)[C@@H]1O` [DIGOXIN] was tested, and the Activity was “inducer [+]”.
